Where two headings read alike, the source gives them in different places.
Assays:
p100/p52 [1] = assay: p100/p52 Western blot (WB) assay; format: cell-based, human; conditions: PBMC cells from healthy donors, 24 hrs, read-out: p100/p52 Western Blot (WB) EC50
Method: Cell cultures were set up to evaluate several SMACm compounds. Frozen PBMC cells from healthy donors were thawed and plated in 2 ml deepwell plates at 2×10^6 cells/ml. Serial dilutions of each compound was carried out as a 7 fold 1:6 dilution with the starting final dose of 1000 nM. Cells were then combined with compound and place at 37° for 24 hrs. The following day cells were pelleted and placed at −80 until lysis.
In preparation for cell lysis, the frozen cell pellets and an aliquot of NP40 Cell Lysis Buffer (Invitrogen, Part #FNN0021), as well as an aliquot of 10× Protease Inhibitor Cocktail (Sigma, Part #P-2714) are thawed on ice. Once thawed, the complete lysis buffer is prepared by adding 10% final volume PI cocktail to the NP40 buffer and then adding in sufficient volume of 0.1 M PMSF (Sigma, Part #93482) and 1 M DTT (Sigma, Part #43816) to create a final concentration of 1 mM each in the complete lysis buffer. Cell lysis is then carried out by resuspending each cell pellet in 30 μL per 10^6 cells then incubating on ice for 30 minutes with vigorous vortexing every 10 minutes. The lysed cells are then centrifuged at 13K RPM for 10 minutes at 4° C. in a refrigerated microcentrifuge. The supernatants (lysates) are then transferred into new microcentrifuge tubes and either stored at −80° or utilized immediately for protein concentration and Western blot analysis.
Protein concentration for each lysate is determined using a detergent compatible Bradford assay (Pierce, Part #23246) following the manufacturer's microplate instructions.
Capillary Western analysis were performed using the ProteinSimple Jess System. A total of 1 ug of cell lysate was prepared according to the provided protocol supplied by ProteinSimple. The primary antibody for p100/p52 (Cell, Signaling #3017) is diluted 1:10 for use in the Jess system. The 12-230 kDa Jess Seperation Module capillary cartridges Separation Module (SM-W004) is used in conjunction with the Anti-Rabbit Secondary NIR conjugate (043-819). The Separation module includes prefilled plates that the samples, primary and secondary antibodies, as well as protein normalization reagent and diluents are loaded onto to perform separation and detection. Once the assay has run, the data is then analyzed utilizing the Compass software provided by ProteinSimple.
Alternatively to capillary electrophoresis, traditional immunoblot assays were carried out, 10 μg of cell lysate was loaded per well into 4-20% Tris-Glycine SDS-PAGE gels. Protein from the SDS-PAGE gels were transferred to Turbo Midi PVDF Transfer Packs (BioRad) using the “Mixed MW” protocol for one Midi Format Gel (constant 2.5 A up to 25V, for 7 minutes) of the Trans-Blot Turbo Transfer System (Bio-Rad) with premade Trans-Blot per the manufacturer's instructions. After transfer, PVDF membranes were blocked in 5% bovine serum albumin (BSA) in 1×TBS (BioRad) with 0.1% Tween-20 for 1 hour at room temperature with gentle rocking. Primary antibodies were added and incubated overnight at 4° C. (anti-p100/p52, Cell Signaling Technology #3017, 1:1000; anti-Actin-HRP conjugate, Abcam #49900, 1:30,000). Following primary staining, the membrane washed three times with 1× Tris Buffered Saline (TBS)+0.1% TWEEN® 20 for 10 minutes each wash. After washing, the membrane was incubated in 5% BSA in 1×TBS+0.1% TWEEN® 20 with the appropriate secondary antibody for 2 hours at room temperature. Following secondary stain the membrane was washed twice for 10 minutes with 1×TBS+0.1% TWEEN® 20 followed by a 10-minute wash with 1×TBS. The membrane was then patted dry with filter paper and an image was captured of the undeveloped membrane on the ChemiDoc MP Imaging System using Image Lab software (BioRad). Sufficient ECL reagent (GE Healthcare) was used to cover the membrane and a series of images were taken starting with 0.001 second and doubling to tripling the exposure time until the luminescence from the developed membrane saturated the image. […]

[2] = test system: cell-associated HIV RNA (HIV gag RNA) in CD4+ T cells; conditions: background statement, primary cells / resting CD4+ T cells; cited from earlier work
[3] = test system: Jurkat HIV-luciferase clones; conditions: background statement; cited from earlier work
p100/p52 [4] = conditions: background statement, primary cells; cited from earlier work

Compound | EC50 (p100/p52 [1]) [nM] | HIV caRNA induction [2] | EC50 (p100/p52 [1]; Homo sapiens) [nM] | potency in cell line assays / Jurkat (HIV latency reversal) [3] | p100-p52 conversion (p100/p52 [4])
CN[C@H](C)C(=O)N[C@@H](C(=O)N1CCC[C@@H]1C(=O)N[C@@H]1c2ccccc2C[C@@H]1OCC#CC#CCO[C@@H]1Cc2ccccc2[C@H]1NC(=O)[C@H]1CCCN1C(=O)[C@H](NC(=O)[C@@H](C)NC)C1CCCCC1)C1CCCCC1 [AZD5582, reference compound] | 63 | increase in cell-associated HIV RNA expression |  |  | 
CC[C@H](NC(=O)[C@H](C)NC)C(=O)N1C[C@@H](O)C[C@H]1Cc1c(-c2[nH]c3cc(F)ccc3c2C[C@@H]2C[C@H](O)CN2C(=O)[C@H](CC)NC(=O)[C@H](C)NC)[nH]c2cc(F)ccc12 [Birinapant, reference compound] |  |  | 1000 |  | 
CN[C@H](C)C(=O)N[C@@H]1CCS[C@@H]2CC(C)(C)C(C(=O)N[C@@H]3CCCc4ccccc43)N2C1=O (stereo partly shown) [SBI-0637142] | 100 to 1000 | did not exhibit activity |  | potent | did not exhibit activity
